Values joined by “and” are separate entries in the source; they are usually repeats but may differ in a detail not shown here. Identical values can stand only once. Like-named read-outs stand apart in the source and are kept apart here.
Legend:
[1] = Phase I clinical trial of CT-011, pharmacokinetics; settings: Table 2 patients
[2] = human, in vivo
[3] = test system: advanced hematological malignancies
[4] = test system: murine lymphocytes; test: In vitro functional assay based on viability of murine lymphocytes; assay type: cell-based
Experimental: FIG. 1C. The effect of 5FU or vehicle control in the functional assay presented as viable cells/ml. The incubation time with 5FU or vehicle control (72 hours) is indicated on the x-axis.

[5] = target: T1, topoisomerase I (Homo sapiens, UniProt P11387); settings: cited from earlier work
T1 sequence (P11387 1-765): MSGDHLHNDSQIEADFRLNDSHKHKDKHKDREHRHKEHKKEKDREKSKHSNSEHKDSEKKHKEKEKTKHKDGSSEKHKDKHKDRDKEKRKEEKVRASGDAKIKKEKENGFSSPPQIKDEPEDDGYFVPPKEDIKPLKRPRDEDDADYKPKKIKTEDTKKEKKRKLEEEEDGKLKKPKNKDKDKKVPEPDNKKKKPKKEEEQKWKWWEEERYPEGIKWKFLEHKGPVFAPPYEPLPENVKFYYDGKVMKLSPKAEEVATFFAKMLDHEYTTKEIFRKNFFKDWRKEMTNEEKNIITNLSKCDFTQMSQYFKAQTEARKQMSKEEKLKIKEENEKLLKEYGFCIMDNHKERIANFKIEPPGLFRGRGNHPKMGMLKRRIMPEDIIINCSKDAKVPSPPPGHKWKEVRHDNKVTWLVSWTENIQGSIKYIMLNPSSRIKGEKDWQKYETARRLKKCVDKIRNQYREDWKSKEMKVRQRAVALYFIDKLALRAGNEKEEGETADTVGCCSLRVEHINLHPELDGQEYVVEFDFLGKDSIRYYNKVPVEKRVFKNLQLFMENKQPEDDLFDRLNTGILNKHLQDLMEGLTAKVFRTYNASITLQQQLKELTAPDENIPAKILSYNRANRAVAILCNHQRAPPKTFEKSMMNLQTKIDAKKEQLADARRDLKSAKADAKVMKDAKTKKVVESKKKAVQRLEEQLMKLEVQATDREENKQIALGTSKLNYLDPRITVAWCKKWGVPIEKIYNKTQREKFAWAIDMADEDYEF

[6] = AML patient receiving CT-011 at 0.2 and 3 mg/kg
[7] = Pt. 003/016, AML, 0.2/3.0 mg/kg
[8] = murine lymphocytes, agent combined with hBAT-1

hBAT-1: humanized monoclonal antibody with CDRs of murine mBAT-1 and human framework regions
median t1/2 of the 6 patients with apparent clinical response versus the rest [1]: somewhat higher than that of the rest of the patients | highest half life [2]: 17.1 days | patients reporting adverse events (AE) ([3]; 11 of 18): 61% | changes in disease parameters ([3]; 21 days, 2 CLL, 4 NHL and one Multiple Myeloma patient): no changes in disease parameters | clinical response [3, 6]: minimal response | time to progression after receiving CT-011 [3, 6]: 61 weeks | change in average percentage of blasts in the peripheral blood ([3]; AML patients, 21 days, excluding one patient): no change | duration of stable disease ([3]; CLL patient, 0.6 mg/kg): 36 weeks | duration of stable disease ([3]; CLL patient, 1.5 mg/kg): over 78 weeks | duration of stable disease ([3]; HD patient, 0.6 mg/kg): 35 weeks | duration of stable disease ([3]; MM patient, 6.0 mg/kg): over 60 weeks | Overall Survival (Weeks) [3, 7]: 61 Weeks | platelet transfusion-independent period [3, 7]: for 9 months | reduction in peripheral blasts ([3]; Pt. 003/016, AML, on first dose (0.2 mg/kg)): (50% to 5%) on first dose | Overall Survival (Weeks) ([3]; Pt. 005, CLL, 0.6 mg/kg): 36 Weeks | Overall Survival (Weeks) ([3]; Pt. 006, HD, 0.6 mg/kg): 35 Weeks | Overall Survival (Weeks) ([3]; Pt. 008, CLL, 1.5 mg/kg): >78 Weeks | duration stable ([3]; Pt. 008, CLL, 1.5 mg/kg): Stable for >17 months | Overall Survival (Weeks) ([3]; Pt. 015, NHL, 3.0 mg/kg): >68 Weeks | tumor masses by CT scan ([3]; Pt. 015, follicular lymphoma, 10 months post CT-011 treatment): complete elimination of tumor masses | Overall Survival (Weeks) ([3]; Pt. 017, MM, 6.0 mg/kg): >60 Weeks | duration stable ([3]; Pt. 017, MM, 6.0 mg/kg): Stable for >13 months | cumulative survival of all patients ([3]; at 21 days, n=18): 76% | most frequent AE ([3]; concluded not associated with CT-011 treatment): diarrhea | patients with apparent response to treatment ([3]; follow-up): 6 patients | mean survival time ([3]; follow-up beyond 21 days, all patients, listed as CT-011): 25±27 weeks and 25 weeks | difference in mean survival time across the dose groups ([3]; human, in vivo): No difference | serious adverse events ([3]; number, all resulted in death, in AML patients): Four | sustained remission ([3]; patient #015, following CT-011 treatment): 68 weeks | clinical response ([3]; patient #015, stage III follicular lymphoma, 3.0 mg/kg): complete remission | dose-limiting toxicity (DLT) ([3]; single dose 0.2 to 6 mg/kg): No DLT was reached | maximum tolerated dose (MTD) ([3]; single dose 0.2 to 6 mg/kg): No single dose MTD was found | safety and tolerability ([3]; single dose 0.2 to 6 mg/kg): safe and well tolerated with no treatment-related toxicities

O=c1[nH]cc(F)c(=O)[nH]1 [5FU, 5-fluorouracil]
effect of chemotherapeutic agent on the activity of hBAT-1 [4, 8]: do not adversely affect the activity of hBAT-1 | cell survival with chemotherapeutic agent on its own ([4]; without hBAT-1, FIG. 1C): did not enhance cell survival

Nc1ccn([C@@H]2O[C@H](CO)[C@@H](O)[C@@H]2O)c(=O)n1 [cytarabine]
effect of chemotherapeutic agent on the activity of hBAT-1 [4, 8]: do not adversely affect the activity of hBAT-1

CC(=O)O[C@H]1C(=O)[C@@]2(C)[C@H]([C@H](OC(=O)c3ccccc3)[C@]3(O)C[C@H](OC(=O)[C@H](O)[C@@H](NC(=O)c4ccccc4)c4ccccc4)C(C)=C1C3(C)C)[C@]1(OC(C)=O)CO[C@@H]1C[C@@H]2O [paclitaxel]
effect of chemotherapeutic agent on the activity of hBAT-1 [4, 8]: do not adversely affect the activity of hBAT-1

N.N.[Cl][Pt][Cl] [cisplatin, cis-diamminedichloridoplatinum II]
effect of chemotherapeutic agent on the activity of hBAT-1 [4, 8]: do not adversely affect the activity of hBAT-1

CCc1c2c(nc3ccc(O)cc13)-c1cc3c(c(=O)n1C2)COC(=O)[C@]3(O)CC [SN-38, 7-ethyl-10-hydroxy-camptothecin]
potency relative to parent compound irinotecan [5]: One thousand-fold more potent | cell survival when given in combination with hBAT-1 [4]: do not enhance cell survival

O=C1[O][Pt]2([NH][C@@H]3CCCC[C@H]3[NH]2)[O]C1=O [oxaliplatin]
effect of chemotherapeutic agent on the activity of hBAT-1 [4]: do not adversely affect the activity of hBAT-1

O=P1(N(CCCl)CCCl)NCCCO1 (stereo not drawn) [cyclophosphamide]
cell survival when given in combination with hBAT-1 ([4]; murine lymphocyte culture): do not enhance cell survival
